{"source": "patent US4540700A", "about": "“Treatment of diabetic complications with certain spiro-imidazolidine-diones” (Alcon Laboratories, Inc., priority 1984, dated 1985)", "test_system": "cataract formation in galactocemic rats", "assay": "in vivo dose response by intubation (per oral) in galactocemic rats, cataract (vacuole) formation", "design": "species or system Charles River CD (Sprague-Dawley derived) male rats", "conditions": "for Relative Potency (antilog) / log relative potency for eyes with vacuoles or more advanced cataracts: observation day 12, 95% confidence limits", "description": "B. In vivo dose response studies were conducted to test the in vivo activity of the following compounds by intubation (per oral) in galactocemic rats on a 30% galactose diet previously described:\nStock suspensions of the test compounds and all dilutions of the compound were formulated with 0.03% by weight Tween 80.\nHealthy, Charles River CD (outbred albino, Sprague-Dawley derived) male rats, aged 20-30 days, without observable ocular defects and ranging in weight from 35-45 grams, were acclimated to experimental conditions (in quarantine) for two days prior to beginning the study.\nRats were individually assigned to one of twenty-three groups according to a random number schedule. Two rats, belonging to the same drug-diet treatment group, were housed per cage. Treatment and control groups consisted of six (6) rats each with no replacement in the event of death, and were designated as follows:\nLenses of all eyes were examined with a hand-held ophthalmoscope in the early stages of cataract development and a penlight for the stages, snowflake-like, snowflake, and nuclear cataract. Lens grading occurred every day for the first ten study days, and then every other day until study Day 14.\nThe relative potency determination was made at 7 drug levels over half log dose intervals. The response (percent cataracts formed and/or the time to cataract formation) was plotted against mg/kg and/or moles/kg.\nThe study was directed to the suppression and/or elimination of the initial stages of cataract development characterized by vacuoles or snowflake-likeopacities only. It was assumed therefore that suppression and/or elimination of vacuoles or lens opacification by the test drugs affects the transport, absorption and/or metabolism of galactose in such a manner as to prevent subsequent osmotic disturbances normally leading to tissue degeneration and advanced cataract. Advanced cataract defined as stages 2-4 of the Sipple classification was assumed to be of secondary importance to the etiology of cataract inhibition.\nIn the event where cataract stage other than vacuole formed, such as snowflake-like opacities, this cataract was counted similarly as vacuole in percent cataract formation.\nThis study yielded this expected effect in the control groups.\nAll animals were fed Purina Laboratory Chow and water, ad libitum, for the two day acclimation period. All drugs were dosed orally by intubation using an animal feeding needle (Popper and Sons), 18 or 20 gauge, attached to a 1 or 3 ml syringe. Once the dosing time schedule was established, the schedule was followed throughout the study to compensate for any diurnal variation.\nThe animals were kept on a twelve hour day/night cycle. The temperature and humidity were determined each day at the scheduled dosing time of 1:00 p.m.\nThe animals were weighed every other day and adjustments to dosage amounts to compensate for weight gain were made each day prior to the dose time. All food was routinely withheld from all animal groups for four hours (9:00 a.m.) prior to the drug dose and restored two hours (3:00 p.m.) post-dose. Otherwise sufficient amounts of chow or diet mixture were maintained in the food hopper to allow the animals to eat ad libitum. There were two days of drug dosage with the animals remaining on Purina Laboratory Chow (Days 1 and 2). The 30% galactose diet mixture was introduced to the animals two hours post-dose on Day 3 which constituted Day 1 of the study.\nAll eyes were examined with a hand-held ophthalmoscope and/or penlight at the times designated in the Experimental Design section.\nIt has been found in previous studies that dilation of the eye with a mydriactic (i.e. Mydriacyl) is not necessary for accurate grading, due to the semi-transparent nature of the rat iris. In the early stages (i.e., grades -, ±, and +) the lens was observed by reflecting the ophthalmoscope beam off the retina back through the lens and iris. Using this technique, vacuoles appear as dark, almost opaque patches. […]", "data": [{"smiles": "O=C1NC(=O)C2(N1)c1cc(F)ccc1-c1ccc(F)cc12", "note": "[M, Spiro-[2,7-difluorofluoren-9,4'-imidazolidine]-2',5'-dione]", "values": [{"measurement": "Percent of Rat Eyes With at Least Vacuoles Formed", "setting": "4.0 mg/kg p.o., Day 9", "value": 0.0, "unit": "%"}, {"measurement": "Percent of Rat Eyes With at Least Vacuoles Formed", "setting": "4.0 mg/kg p.o., Day 9, listed as 2,7-difluoro", "value": 0, "unit": "%"}, {"measurement": "Percent of Rat Eyes With at Least Vacuoles Formed", "setting": "4.0 mg/kg p.o., Day 10", "value": 0.0, "unit": "%"}, {"measurement": "Percent of Rat Eyes With at Least Vacuoles Formed", "setting": "4.0 mg/kg p.o., Day 10, listed as 2,7-difluoro", "value": 0, "unit": "%"}, {"measurement": "Percent of Rat Eyes With at Least Vacuoles Formed", "setting": "4.0 mg/kg p.o., Day 12", "value": 0.0, "unit": "%"}, {"measurement": "Percent of Rat Eyes With at Least Vacuoles Formed", "setting": "4.0 mg/kg p.o., Day 12, listed as 2,7-difluoro", "value": 0, "unit": "%"}, {"measurement": "Percent of Rat Eyes With at Least Vacuoles Formed", "setting": "4.0 mg/kg p.o., Day 14", "value": 0.0, "unit": "%"}, {"measurement": "Percent of Rat Eyes With at Least Vacuoles Formed", "setting": "4.0 mg/kg p.o., Day 14, listed as 2,7-difluoro", "value": 0, "unit": "%"}, {"measurement": "Percent of Rat Eyes With at Least Vacuoles Formed", "setting": "12.6 mg/kg p.o., Day 0", "value": 0, "unit": "%"}, {"measurement": "Percent of Rat Eyes With at Least Vacuoles Formed", "setting": "12.6 mg/kg p.o., Day 1", "value": 0, "unit": "%"}, {"measurement": "Percent of Rat Eyes With at Least Vacuoles Formed", "setting": "12.6 mg/kg p.o., Day 2", "value": 0, "unit": "%"}, {"measurement": "Percent of Rat Eyes With at Least Vacuoles Formed", "setting": "12.6 mg/kg p.o., Day 3", "value": 0, "unit": "%"}, {"measurement": "Percent of Rat Eyes With at Least Vacuoles Formed", "setting": "12.6 mg/kg p.o., Day 4", "value": 0, "unit": "%"}, {"measurement": "Percent of Rat Eyes With at Least Vacuoles Formed", "setting": "12.6 mg/kg p.o., Day 5", "value": 0, "unit": "%"}, {"measurement": "Percent of Rat Eyes With at Least Vacuoles Formed", "setting": "12.6 mg/kg p.o., Day 6", "value": 0.0, "unit": "%"}, {"measurement": "Percent of Rat Eyes With at Least Vacuoles Formed", "setting": "12.6 mg/kg p.o., Day 6, listed as 2,7-difluoro", "value": 0, "unit": "%"}, {"measurement": "Percent of Rat Eyes With at Least Vacuoles Formed", "setting": "12.6 mg/kg p.o., Day 7", "value": 0.0, "unit": "%"}, {"measurement": "Percent of Rat Eyes With at Least Vacuoles Formed", "setting": "12.6 mg/kg p.o., Day 7, listed as 2,7-difluoro", "value": 0, "unit": "%"}, {"measurement": "Percent of Rat Eyes With at Least Vacuoles Formed", "setting": "12.6 mg/kg p.o., Day 8", "value": 0.0, "unit": "%"}, {"measurement": "Percent of Rat Eyes With at Least Vacuoles Formed", "setting": "12.6 mg/kg p.o., Day 8, listed as 2,7-difluoro", "value": 0, "unit": "%"}, {"measurement": "Percent of Rat Eyes With at Least Vacuoles Formed", "setting": "12.6 mg/kg p.o., Day 9", "value": 0.0, "unit": "%"}, {"measurement": "Percent of Rat Eyes With at Least Vacuoles Formed", "setting": "12.6 mg/kg p.o., Day 9, listed as 2,7-difluoro", "value": 0, "unit": "%"}, {"measurement": "Percent of Rat Eyes With at Least Vacuoles Formed", "setting": "12.6 mg/kg p.o., Day 10", "value": 0.0, "unit": "%"}, {"measurement": "Percent of Rat Eyes With at Least Vacuoles Formed", "setting": "12.6 mg/kg p.o., Day 10, listed as 2,7-difluoro", "value": 0, "unit": "%"}, {"measurement": "Percent of Rat Eyes With at Least Vacuoles Formed", "setting": "12.6 mg/kg p.o., Day 12", "value": 0.0, "unit": "%"}, {"measurement": "Percent of Rat Eyes With at Least Vacuoles Formed", "setting": "12.6 mg/kg p.o., Day 12, listed as 2,7-difluoro", "value": 0, "unit": "%"}, {"measurement": "Percent of Rat Eyes With at Least Vacuoles Formed", "setting": "12.6 mg/kg p.o., Day 14", "value": 0.0, "unit": "%"}, {"measurement": "Percent of Rat Eyes With at Least Vacuoles Formed", "setting": "12.6 mg/kg p.o., Day 14, listed as 2,7-difluoro", "value": 0, "unit": "%"}, {"measurement": "Percent of Rat Eyes With at Least Vacuoles Formed", "setting": "40 mg/kg p.o., Day 0", "value": 0, "unit": "%"}, {"measurement": "Percent of Rat Eyes With at Least Vacuoles Formed", "setting": "40 mg/kg p.o., Day 1", "value": 0, "unit": "%"}, {"measurement": "Percent of Rat Eyes With at Least Vacuoles Formed", "setting": "40 mg/kg p.o., Day 2", "value": 0, "unit": "%"}, {"measurement": "Percent of Rat Eyes With at Least Vacuoles Formed", "setting": "40 mg/kg p.o., Day 3", "value": 0, "unit": "%"}, {"measurement": "Percent of Rat Eyes With at Least Vacuoles Formed", "setting": "40 mg/kg p.o., Day 4", "value": 0, "unit": "%"}, {"measurement": "Percent of Rat Eyes With at Least Vacuoles Formed", "setting": "40 mg/kg p.o., Day 5", "value": 0, "unit": "%"}, {"measurement": "Percent of Rat Eyes With at Least Vacuoles Formed", "setting": "40 mg/kg p.o., Day 6", "value": 0.0, "unit": "%"}, {"measurement": "Percent of Rat Eyes With at Least Vacuoles Formed", "setting": "40 mg/kg p.o., Day 6, listed as 2,7-difluoro", "value": 0, "unit": "%"}, {"measurement": "Percent of Rat Eyes With at Least Vacuoles Formed", "setting": "40 mg/kg p.o., Day 7", "value": 0.0, "unit": "%"}, {"measurement": "Percent of Rat Eyes With at Least Vacuoles Formed", "setting": "40 mg/kg p.o., Day 7, listed as 2,7-difluoro", "value": 0, "unit": "%"}, {"measurement": "Percent of Rat Eyes With at Least Vacuoles Formed", "setting": "40 mg/kg p.o., Day 8", "value": 0.0, "unit": "%"}, {"measurement": "Percent of Rat Eyes With at Least Vacuoles Formed", "setting": "40 mg/kg p.o., Day 8, listed as 2,7-difluoro", "value": 0, "unit": "%"}, {"measurement": "Percent of Rat Eyes With at Least Vacuoles Formed", "setting": "40 mg/kg p.o., Day 9", "value": 0.0, "unit": "%"}, {"measurement": "Percent of Rat Eyes With at Least Vacuoles Formed", "setting": "40 mg/kg p.o., Day 9, listed as 2,7-difluoro", "value": 0, "unit": "%"}, {"measurement": "Percent of Rat Eyes With at Least Vacuoles Formed", "setting": "40 mg/kg p.o., Day 10", "value": 0.0, "unit": "%"}, {"measurement": "Percent of Rat Eyes With at Least Vacuoles Formed", "setting": "40 mg/kg p.o., Day 10, listed as 2,7-difluoro", "value": 0, "unit": "%"}, {"measurement": "Percent of Rat Eyes With at Least Vacuoles Formed", "setting": "40 mg/kg p.o., Day 12", "value": 0.0, "unit": "%"}, {"measurement": "Percent of Rat Eyes With at Least Vacuoles Formed", "setting": "40 mg/kg p.o., Day 12, listed as 2,7-difluoro", "value": 0, "unit": "%"}, {"measurement": "Percent of Rat Eyes With at Least Vacuoles Formed", "setting": "40 mg/kg p.o., Day 14", "value": 0.0, "unit": "%"}, {"measurement": "Percent of Rat Eyes With at Least Vacuoles Formed", "setting": "40 mg/kg p.o., Day 14, listed as 2,7-difluoro", "value": 0, "unit": "%"}, {"measurement": "activity in vivo relative to the Sarges compound", "setting": "rat studies", "value": "unexpectedly and significantly more active"}, {"measurement": "Relative Potency (antilog)", "setting": "relative to 2-fluoro (L)", "value": 2.80}, {"measurement": "log relative potency for eyes with vacuoles or more advanced cataracts", "setting": "relative to 2-fluoro (L)", "value": 0.4473}, {"measurement": "Relative Potency (antilog)", "setting": "relative to Sarges Racemic", "value": 12.92}, {"measurement": "log relative potency for eyes with vacuoles or more advanced cataracts", "setting": "relative to Sarges Racemic", "value": 1.1114}]}]}
